Measured values published in the supplement of paper PMC11061612.

Tests used:
Assay in all cases: combination Emax (second highest fraction inhibited in the dose matrix, 72 h); higher = more inhibition; extreme values may be limits of the assay
[1] = tested on: CAL-148 (Breast Carcinoma)
How it was run: (§1)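 After 24 hours at 37°C and 5% CO2 in 1536-well plates, cells in DMEM/F12 or RPMI plus 10% FBS received two-drug dose matrices for 72 hours. Viability came from CellTiter-Glo 2.0 luminescence and was scaled as inhibition, anchored at 0 by vehicle wells and at 1 by blank wells. Combination Emax is taken as the second-highest inhibition in the matrix, and Bliss excess as the observed combination effect less EA + EB − EA·EB, with EA and EB the single-agent effects.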

[2] = tested on: CCRF-CEM (T-Lymphoblastic Leukemia)
How it was run: as §1

[3] = tested on: Calu-3 (Lung Adenocarcinoma)
How it was run: as §1

[4] = tested on: DoTc2-4510 (Cervical Carcinoma)
How it was run: as §1

[5] = tested on: HCC-78 (Lung Adenocarcinoma)
How it was run: as §1

[6] = tested on: HO-1-N-1 (Oral Cavity Carcinoma)
How it was run: as §1

HOS (Osteosarcoma) = tested on: HOS (Osteosarcoma)
How it was run: as §1

[7] = tested on: HT-1376 (Bladder Carcinoma)
How it was run: as §1

[8] = tested on: Hs-578-T (Breast Carcinoma)
How it was run: as §1

[9] = tested on: KURAMOCHI (Ovarian Carcinoma)
How it was run: as §1

[10] = tested on: LB831-BLC (Bladder Carcinoma)
How it was run: as §1

[11] = tested on: LS-180 (Colorectal Carcinoma)
How it was run: as §1

[12] = tested on: ME-1 (Acute Myeloid Leukemia)
How it was run: as §1

NB10 (Neuroblastoma) = tested on: NB10 (Neuroblastoma)
How it was run: as §1

[13] = tested on: NCI-H2085 (Non-Small Cell Lung Carcinoma)
How it was run: as §1

[14] = tested on: NCI-H82 (Small Cell Lung Carcinoma)
How it was run: as §1

[15] = tested on: Ramos-2G6-4C10 (Burkitt's Lymphoma)
How it was run: as §1

[16] = tested on: TE-15 (Esophageal Squamous Cell Carcinoma)
How it was run: as §1

[17] = tested on: TE-9 (Esophageal Squamous Cell Carcinoma)
How it was run: as §1

[18] = tested on: UM-UC-3 (Bladder Carcinoma)
How it was run: as §1

SMILES	combination Emax [1]	combination Emax [2]	combination Emax [3]	combination Emax [4]	combination Emax [5]	combination Emax [6]	combination Emax (HOS (Osteosarcoma))	combination Emax [7]	combination Emax [8]	combination Emax [9]	combination Emax [10]	combination Emax [11]	combination Emax [12]	combination Emax (NB10 (Neuroblastoma))	combination Emax [13]	combination Emax [14]	combination Emax [15]	combination Emax [16]	combination Emax [17]	combination Emax [18]
N#Cc1cnc(Nc2cc(NC[C@H]3CNCCO3)c(C(F)(F)F)cn2)cn1 [SRA737] + C=CCn1c(=O)c2cnc(Nc3ccc(N4CCN(C)CC4)cc3)nc2n1-c1cccc(C(C)(C)O)n1 [AZD1775] (first compound max 10 µM, partner max 1 µM)	0.969	0.995	0.495	0.725	0.714	0.666	0.811	0.387	0.783	0.717	0.721	0.758	0.566	0.84	0.882	0.985	1	0.821	0.7	0.471
O=C(c1cc(Cc2n[nH]c(=O)c3ccccc23)ccc1F)N1CCN(C(=O)C2CC2)CC1 [Olaparib] + COc1nnc2ccc(N3CCC(c4ccc(OCCN5CCN(C)C(=O)[C@H]5C)cc4)CC3)nn12 [AZD5153] (first compound max 10 µM, 7x7, partner max 1 µM)	0.73	0.714	0.516	0.263	0.325	0.604	0.402	0.0928	0.729	0.772	0.465	0.581	0.403	0.406	0.383	0.535	0.611	0.516	0.189	0.359
O=C(c1cc(Cc2n[nH]c(=O)c3ccccc23)ccc1F)N1CCN(C(=O)C2CC2)CC1 [Olaparib] + Cc1c2c(nn1C)CSCc1cc(n(C)n1)CSc1cc(c3ccccc3c1)OCCCc1c(C(=O)O)n(C)c3c-2c(Cl)ccc13 [AZD5991] (first compound max 10 µM, 7x7, partner max 1 µM)	0.635	0.271	0.0927	0.224	0.13	0.78	0.254	0.0928	0.489	0.28	0.136	0.221	0.551	0.437	0.0831	0.899	0.978	0.29	0.202	0.0695
O=C(c1cc(Cc2n[nH]c(=O)c3ccccc23)ccc1F)N1CCN(C(=O)C2CC2)CC1 [Olaparib] + CC1(C)CCC(CN2CCN(c3ccc(C(=O)NS(=O)(=O)c4ccc(NCC5CCOCC5)c([N+](=O)[O-])c4)c(Oc4cnc5[nH]ccc5c4)c3)CC2)=C(c2ccc(Cl)cc2)C1 [Venetoclax] (first compound max 10 µM, 7x7, partner max 1 µM)	0.261	0.209	0.102	0.259	0.0996	0.221	0.22	0.0615	0.308	0.137	0.247	0.203	1	0.348	0.0675	0.395	0.126	0.251	0.171	0.0664
C=CCn1c(=O)c2cnc(Nc3ccc(N4CCN(C)CC4)cc3)nc2n1-c1cccc(C(C)(C)O)n1 [AZD1775] + Nc1ccn([C@@H]2O[C@H](CO)[C@@H](O)C2(F)F)c(=O)n1 [Gemcitabine] (first compound max 1 µM, partner max 0.3 µM)	0.989	1	0.636	0.729	0.851	0.993	0.596	0.428	0.724	0.699	0.872	0.754	0.526	0.933	0.725	0.923	1	0.944	0.502	0.918
Cc1c2c(nn1C)CSCc1cc(n(C)n1)CSc1cc(c3ccccc3c1)OCCCc1c(C(=O)O)n(C)c3c-2c(Cl)ccc13 [AZD5991] + CS(=O)(=O)CCNCc1ccc(-c2ccc3ncnc(Nc4ccc(OCc5cccc(F)c5)c(Cl)c4)c3c2)o1 [Lapatinib] (first compound max 1 µM, 7x7, partner max 10 µM)	0.492	0.594	0.895	0.549	0.173	0.962	0.303	0.33	0.833	0.674	0.55	0.482	0.646	0.177	0.47	0.963	0.996	0.764	0.193	0.169
